Results published in PubChem BioAssay AID192 (DTP/NCI, 2004).
“And” between values parts separate entries of the source, which are not always exact repeats. Equal values may be shown once. Toxic doses and inconclusive results are not listed. Rule for the calls: active = survival T/C of 150% or more; inactive = T/C below 125% in these data.

System: BDF1 mice, B16 melanoma ip, median survival T/C
Test: NCI In Vivo Anticancer Drug Screen. Data for tumor model B16 Melanoma (intraperitoneal) in B6D2F1 (BDF1) mice
Details: endpoint: median survival time, higher = longer survival
How it was run: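 Compounds were tested in mice carrying transplantable tumors. Survival or tumor size was recorded, and each value is the treated-group measurement (T) divided by that of the vehicle-treated control group (C).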

[1] = dose: 100.0 mg/kg/injection, schedule: Q01DX009 (ip), vehicle: saline with Tween-80
[2] = dose: 200.0 mg/kg/injection, schedule: Q01DX009 (ip), vehicle: saline with Tween-80
[3] = dose: 400.0 mg/kg/injection, schedule: Q01DX009 (ip), vehicle: saline with Tween-80
[4] = dose: 12.5 mg/kg/injection, schedule: Q01DX009 (ip), vehicle: saline with Tween-80
[5] = dose: 25.0 mg/kg/injection, schedule: Q01DX009 (ip), vehicle: saline with Tween-80
[6] = dose: 50.0 mg/kg/injection, schedule: Q01DX009 (ip), vehicle: saline with Tween-80
[7] = dose: 50.0 mg/kg/injection, schedule: Q01DX009 (ip), vehicle: Klucel (hydroxypropylcellulose) (HPC)
[8] = dose: 100.0 mg/kg/injection, schedule: Q01DX009 (ip), vehicle: Klucel (hydroxypropylcellulose) (HPC)
[9] = dose: 200.0 mg/kg/injection, schedule: Q01DX009 (ip), vehicle: Klucel (hydroxypropylcellulose) (HPC)
[10] = dose: 100.0 mg/kg/injection, schedule: Q04DX003 (ip), vehicle: Klucel (hydroxypropylcellulose) (HPC)
[11] = dose: 200.0 mg/kg/injection, schedule: Q04DX003 (ip), vehicle: Klucel (hydroxypropylcellulose) (HPC)
[12] = dose: 400.0 mg/kg/injection, schedule: Q04DX003 (ip), vehicle: Klucel (hydroxypropylcellulose) (HPC)

Measured: T/C

NC(=S)N/N=C1/c2cc(Cl)ccc2-c2c(Cl)cc(Cl)cc21
inactive: [1] 93 % of control | [2] 95 % of control | [3] 93 % of control | dose: 800.0 mg/kg/injection, schedule: Q01DX009 (ip), vehicle: saline with Tween-80 95 % of control

CN(C)CC(C(=O)c1ccc(Br)cc1)C(Br)c1ccccc1 (configuration not stated)
inactive: dose: 5.0 mg/kg/injection, schedule: Q01DX009 (ip), vehicle: saline with Tween-80 101 % of control | dose: 10.0 mg/kg/injection, schedule: Q01DX009 (ip), vehicle: saline with Tween-80 108 % of control | dose: 20.0 mg/kg/injection, schedule: Q01DX009 (ip), vehicle: saline with Tween-80 101 % of control | dose: 40.0 mg/kg/injection, schedule: Q01DX009 (ip), vehicle: saline with Tween-80 111 % of control

CSc1nc(N)cc(NC(=O)CCl)n1
inactive: dose: 6.25 mg/kg/injection, schedule: Q01DX009 (ip), vehicle: saline with Tween-80 109 % of control | [4] 97 % of control | [5] 89 % of control and 118 % of control | [6] 97 % of control and 120 % of control

O=C(CCCN1CCC(O)(c2cccc(C(F)(F)F)c2)CC1)c1ccc(F)cc1
inactive: dose: 0.04 mg/kg/injection, schedule: Q01DX009 (ip), vehicle: Klucel (hydroxypropylcellulose) (HPC) 93 % of control | dose: 0.19 mg/kg/injection, schedule: Q01DX009 (ip), vehicle: Klucel (hydroxypropylcellulose) (HPC) 101 % of control | dose: 0.39 mg/kg/injection, schedule: Q01DX009 (ip), vehicle: Klucel (hydroxypropylcellulose) (HPC) 112 % of control | dose: 0.78 mg/kg/injection, schedule: Q01DX009 (ip), vehicle: Klucel (hydroxypropylcellulose) (HPC) 105 % of control | dose: 4.0 mg/kg/injection, schedule: Q01DX009 (ip), vehicle: Klucel (hydroxypropylcellulose) (HPC) 95 % of control | dose: 8.0 mg/kg/injection, schedule: Q01DX009 (ip), vehicle: Klucel (hydroxypropylcellulose) (HPC) 98 % of control

O=S1(=O)C=Cc2ccccc21
inactive: [7] 90 % of control | [8] 88 % of control | [9] 88 % of control

CN(CCOc1ccccc1O)CCOc1ccccc1O
inactive: [8] 111 % of control | [9] 105 % of control

CCc1nc2cc(C)c(C)cc2[nH]1
inactive: [4] 106 % of control | [5] 104 % of control | [6] 104 % of control

CCCN1CSC(=S)N(CCC)C1
inactive: [7] 89 % of control | [8] 102 % of control | [9] 102 % of control

COc1ccc(-c2csc(=[N+]3CCCCC3)s2)cc1
inactive: dose: 1.56 mg/kg/injection, schedule: Q01DX009 (ip), vehicle: water 94 % of control and 95 % of control | dose: 3.12 mg/kg/injection, schedule: Q01DX009 (ip), vehicle: water 90 % of control and 101 % of control | dose: 6.25 mg/kg/injection, schedule: Q01DX009 (ip), vehicle: water 101 % of control and 102 % of control | dose: 12.5 mg/kg/injection, schedule: Q01DX009 (ip), vehicle: water 103 % of control and 109 % of control | dose: 25.0 mg/kg/injection, schedule: Q01DX009 (ip), vehicle: water 86 % of control and 110 % of control

NC(N)=Nc1cc2ccccc2c2ccccc12
inactive: dose: 5.0 mg/kg/injection, schedule: Q01DX009 (ip), vehicle: saline 93 % of control | dose: 10.0 mg/kg/injection, schedule: Q01DX009 (ip), vehicle: saline 111 % of control | dose: 20.0 mg/kg/injection, schedule: Q01DX009 (ip), vehicle: saline 120 % of control

O=[N+]([O-])c1ccc(/C=C/c2ccccc2)c([N+](=O)[O-])c1
inactive: [10] 97 % of control | [11] 96 % of control | [12] 97 % of control

C(=N\Nc1nn[nH]n1)/c1ccncc1
inactive: [8] 103 % of control | [9] 104 % of control

O=C(CCCC(=O)N1CCOCC1)N1CCOCC1
inactive: [10] 97 % of control | [11] 95 % of control | [12] 92 % of control

O=C(O)CSCCc1ccccc1
inactive: [8] 96 % of control | [9] 93 % of control | dose: 400.0 mg/kg/injection, schedule: Q01DX009 (ip), vehicle: Klucel (hydroxypropylcellulose) (HPC) 100 % of control

Cc1cccc(/C=N\OCCc2ccccc2)n1
inactive: [1] 97 % of control | [2] 93 % of control

N#C/C(=C\c1c[nH]c2ccccc12)C(N)=O
inactive: [1] 108 % of control | [2] 108 % of control | [3] 108 % of control

CCCCOC(=O)C(C)OC(=O)Nc1cccc(Cl)c1 (configuration not stated)
inactive: [1] 88 % of control | [2] 100 % of control | [3] 92 % of control

Nc1ccccc1O
inactive: dose: 50.0 mg/kg/injection, schedule: Q01DX009 (ip), vehicle: saline 93 % of control and 99 % of control | dose: 100.0 mg/kg/injection, schedule: Q01DX009 (ip), vehicle: saline 101 % of control and 93 % of control | dose: 200.0 mg/kg/injection, schedule: Q01DX009 (ip), vehicle: saline 91 % of control and 94 % of control

O=C(O)/C(=C\c1ccc(Cl)cc1)c1ccc(Cl)cc1
inactive: dose: 37.5 mg/kg/injection, schedule: Q01DX009 (ip), vehicle: Klucel (hydroxypropylcellulose) (HPC) 87 % of control | dose: 75.0 mg/kg/injection, schedule: Q01DX009 (ip), vehicle: Klucel (hydroxypropylcellulose) (HPC) 92 % of control | dose: 150.0 mg/kg/injection, schedule: Q01DX009 (ip), vehicle: Klucel (hydroxypropylcellulose) (HPC) 93 % of control
